One experiment deals with Transthyretin (Homo sapiens, UniProt P02766). Description: Luminescence-based cell-based high throughput dose response assay to identify activators of Transthyretin (TTR) transcription. It is filed as functional.
The test system of experiment [1] is A-375. Description: proliferation inhibition in MITF-low A375 cells – cell-based, cherry-pick samples, set 2, counter-screen for MITF modulator project, dose response (AID 540335). Format: functional. Particulars: Homo sapiens. A general note: The purpose of a counterscreen is to sort out artefacts and off-target activity.
Experiment [2] concerns the target Heat shock protein HSP 90-alpha (Homo sapiens, UniProt P07900). The experiment can be described thus: Luminescence-based dose response biochemical high throughput screening assay for inhibitors of the Heat Shock Protein 90 (HSP90). [Related pubchem assays: 1831 (Summary AID.), 1846 (Confirmation screen.), 1789 (Primary screen.)].
Experiment [3] has as its system A-375. Description: MITF: Counter assay: A375 proliferation Measured in Cell-Based System Using Plate Reader - 2084-03_Inhibitor_Dose_DryPowder_Activity. [Related pubchem assays (depositor defined):AID488944]. Particulars: Homo sapiens. It is filed as functional.
A short description of experiment [4]: viability loss in Vero cells – cytotoxicity control for Vif-APOBEC3G degradation inhibitor project, dose response (AID 1117358). The note with it: Vero. It is filed as functional.
The target in experiment [5] is T1, Oxysterols receptor LXR-beta (Homo sapiens, UniProt P55055).
T1 sequence (P55055 whole entry): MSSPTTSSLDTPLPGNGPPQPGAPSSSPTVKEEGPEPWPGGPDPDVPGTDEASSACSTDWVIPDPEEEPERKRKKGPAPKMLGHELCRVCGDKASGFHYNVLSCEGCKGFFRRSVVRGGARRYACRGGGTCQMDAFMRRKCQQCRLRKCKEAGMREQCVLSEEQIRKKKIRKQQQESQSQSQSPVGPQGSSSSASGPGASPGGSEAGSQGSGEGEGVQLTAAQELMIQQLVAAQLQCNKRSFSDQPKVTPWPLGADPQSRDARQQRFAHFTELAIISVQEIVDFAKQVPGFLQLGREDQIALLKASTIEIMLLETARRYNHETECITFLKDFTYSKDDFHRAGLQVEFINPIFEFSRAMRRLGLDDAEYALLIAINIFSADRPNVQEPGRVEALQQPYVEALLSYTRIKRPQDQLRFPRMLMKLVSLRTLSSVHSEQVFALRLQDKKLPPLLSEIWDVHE
The experiment can be described thus: LXR agonists, Gal4 luciferase reporter, dose response, counter-screen for ssDAF-12 agonist project, cell-based, luminescence, HEK293, S. stercoralis campaign (AID 720737). It is filed as functional. Particulars: read-out: IC50 (the source's name). On the technique in general: In a reporter assay the amount or activity of a reporter protein is the signal.

In experiment [6] the target is T1, Oxysterols receptor LXR-beta. It is filed as functional, cell-based.
A short description of experiment [7]: Luminescence-based cell-based high throughput dose response assay to identify activators of the DAF-12 from the parasite S. stercoralis (ssDAF-12). It is filed as functional.
Experiment [8] is described as follows: cells.
Experiment [9] is described as follows: HIV-1 Vif–A3G interaction blockers – biochemical, TR-FRET, GST-Vif 1-94, biotin-A3G peptide, dose response retest, primary screen (AID 1117319).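 Also: TR-FRET signal of purified GST-Vif binding a biotinylated A3G peptide; inhibitors lower the FRET signal by blocking Vif and A3G binding.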 Format: functional.
Experiment [10] has as its target E3 ubiquitin-protein ligase Mdm2 (Homo sapiens, UniProt Q00987). Description: MDM2-luc reporter signal enhancers, multi-concentration potency testing, MDM2 ubiquitin-protein ligase inhibitor program, whole-cell format, luminescence detection, 384-well microplate (AID 1394).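 Also: MDM2 E3 inhibitors raise luminescence so EC50 is for signal enhancement.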 It is filed as functional.
Experiment [11] is described as follows: viability loss in HepG2 liver cells – cell-based, ATP luminescence, cherry-pick, set 6, cytotoxicity control, dose response (AID 1053125). It is filed as functional.
The nature of experiment [12]: cells. Particulars: HEK293.
Experiment [13] in a line: cells. The note with it: A549.
Experiment [14] is described as follows: Counterscreen for activators of the function of SWI/SNF related, matrix associated, actin dependent regulator of chromatin, subfamily a, member 2 (SMARCA2, BRM): Luminescence-based cell-based high throughput dose response assay to identify non-selective compounds using the VP16 reporter assay. Format: functional.
The target of experiment [15] is SWI/SNF-related matrix-associated actin-dependent regulator of chromatin subfamily A member 2 (Homo sapiens, UniProt P51531). Description: Luminescence-based cell-based high throughput dose response assay to identify activators of the function of SWI/SNF related, matrix associated, actin dependent regulator of chromatin, subfamily a, member 2 (SMARCA2, BRM). It is filed as functional.

The target of experiment [16] is 1-phosphatidylinositol 4,5-bisphosphate phosphodiesterase gamma-1 (Homo sapiens, UniProt P19174). Description: Counterscreen for inhibitors of phospholipase C isozymes (PLC-B3): Fluorescence-based biochemical high throughput dose response assay to identify inhibitors of phospholipase C isozymes (PLC-gamma1).
For experiment [17], the target named is 1-phosphatidylinositol 4,5-bisphosphate phosphodiesterase beta-3 (Homo sapiens, UniProt Q01970). Description: Fluorescence-based biochemical high throughput dose response assay to identify inhibitors of phospholipase C isozymes (PLC-B3).
Experiment [18] concerns the target Metabotropic glutamate receptor 5 (Rattus norvegicus, UniProt P31424). The experiment can be described thus: Identification of a glycine sulfonamide based non-MPEP site positive allosteric potentiator (PAM) of mGlu5 (calcium_assay). Format: functional.
Experiment [19] is described as follows: HEK293 Cytotoxicity Assay Measured in Cell-Based System Using Plate Reader - 7071-01_Inhibitor_Dose_CherryPick_Activity_Set2. Format: functional.
A further experiment concerns HEK293. Description: viability loss in HEK293T cells – cell-based, ATP luminescence, cherry-pick samples, cytotoxicity control, dose response (AID 687005).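 Also: cells exposed to compound for 48 hours.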 The note with it: Homo sapiens. It is filed as functional.

pEC50: −log10 of the molar value. Active and inactive are the calls of the source.

Sequence of Metabotropic glutamate receptor 5 (P31424 whole entry): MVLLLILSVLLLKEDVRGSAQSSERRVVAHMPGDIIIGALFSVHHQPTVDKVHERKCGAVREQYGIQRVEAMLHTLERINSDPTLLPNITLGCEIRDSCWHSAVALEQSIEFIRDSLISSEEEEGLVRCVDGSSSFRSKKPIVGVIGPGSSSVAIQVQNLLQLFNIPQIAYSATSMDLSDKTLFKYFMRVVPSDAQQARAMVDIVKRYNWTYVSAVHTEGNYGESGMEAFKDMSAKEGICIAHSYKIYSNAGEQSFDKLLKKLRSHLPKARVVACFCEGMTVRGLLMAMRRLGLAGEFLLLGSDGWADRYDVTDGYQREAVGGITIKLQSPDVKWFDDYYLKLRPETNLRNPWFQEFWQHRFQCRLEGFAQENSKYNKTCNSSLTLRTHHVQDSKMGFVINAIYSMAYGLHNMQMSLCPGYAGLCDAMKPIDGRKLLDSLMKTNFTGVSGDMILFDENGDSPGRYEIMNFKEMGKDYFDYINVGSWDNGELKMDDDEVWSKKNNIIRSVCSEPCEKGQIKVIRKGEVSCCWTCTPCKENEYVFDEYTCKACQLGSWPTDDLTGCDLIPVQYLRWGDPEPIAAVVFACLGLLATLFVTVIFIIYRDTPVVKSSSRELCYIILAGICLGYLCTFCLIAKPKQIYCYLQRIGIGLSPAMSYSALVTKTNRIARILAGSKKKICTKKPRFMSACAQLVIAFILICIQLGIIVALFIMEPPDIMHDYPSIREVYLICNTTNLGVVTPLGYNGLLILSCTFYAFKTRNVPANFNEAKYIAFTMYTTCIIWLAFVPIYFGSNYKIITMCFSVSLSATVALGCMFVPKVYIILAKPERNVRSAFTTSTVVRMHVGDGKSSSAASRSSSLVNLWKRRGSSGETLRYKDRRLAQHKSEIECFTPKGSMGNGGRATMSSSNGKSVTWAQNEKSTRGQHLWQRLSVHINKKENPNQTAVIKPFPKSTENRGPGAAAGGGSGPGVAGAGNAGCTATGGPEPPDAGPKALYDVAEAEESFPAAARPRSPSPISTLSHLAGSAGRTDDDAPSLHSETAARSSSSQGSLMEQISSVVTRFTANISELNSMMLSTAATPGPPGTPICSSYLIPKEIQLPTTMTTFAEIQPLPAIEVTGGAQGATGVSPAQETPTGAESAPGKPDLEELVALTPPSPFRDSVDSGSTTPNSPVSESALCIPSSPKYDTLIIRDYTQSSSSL
Sequence of 1-phosphatidylinositol 4,5-bisphosphate phosphodiesterase gamma-1 (P19174 whole entry): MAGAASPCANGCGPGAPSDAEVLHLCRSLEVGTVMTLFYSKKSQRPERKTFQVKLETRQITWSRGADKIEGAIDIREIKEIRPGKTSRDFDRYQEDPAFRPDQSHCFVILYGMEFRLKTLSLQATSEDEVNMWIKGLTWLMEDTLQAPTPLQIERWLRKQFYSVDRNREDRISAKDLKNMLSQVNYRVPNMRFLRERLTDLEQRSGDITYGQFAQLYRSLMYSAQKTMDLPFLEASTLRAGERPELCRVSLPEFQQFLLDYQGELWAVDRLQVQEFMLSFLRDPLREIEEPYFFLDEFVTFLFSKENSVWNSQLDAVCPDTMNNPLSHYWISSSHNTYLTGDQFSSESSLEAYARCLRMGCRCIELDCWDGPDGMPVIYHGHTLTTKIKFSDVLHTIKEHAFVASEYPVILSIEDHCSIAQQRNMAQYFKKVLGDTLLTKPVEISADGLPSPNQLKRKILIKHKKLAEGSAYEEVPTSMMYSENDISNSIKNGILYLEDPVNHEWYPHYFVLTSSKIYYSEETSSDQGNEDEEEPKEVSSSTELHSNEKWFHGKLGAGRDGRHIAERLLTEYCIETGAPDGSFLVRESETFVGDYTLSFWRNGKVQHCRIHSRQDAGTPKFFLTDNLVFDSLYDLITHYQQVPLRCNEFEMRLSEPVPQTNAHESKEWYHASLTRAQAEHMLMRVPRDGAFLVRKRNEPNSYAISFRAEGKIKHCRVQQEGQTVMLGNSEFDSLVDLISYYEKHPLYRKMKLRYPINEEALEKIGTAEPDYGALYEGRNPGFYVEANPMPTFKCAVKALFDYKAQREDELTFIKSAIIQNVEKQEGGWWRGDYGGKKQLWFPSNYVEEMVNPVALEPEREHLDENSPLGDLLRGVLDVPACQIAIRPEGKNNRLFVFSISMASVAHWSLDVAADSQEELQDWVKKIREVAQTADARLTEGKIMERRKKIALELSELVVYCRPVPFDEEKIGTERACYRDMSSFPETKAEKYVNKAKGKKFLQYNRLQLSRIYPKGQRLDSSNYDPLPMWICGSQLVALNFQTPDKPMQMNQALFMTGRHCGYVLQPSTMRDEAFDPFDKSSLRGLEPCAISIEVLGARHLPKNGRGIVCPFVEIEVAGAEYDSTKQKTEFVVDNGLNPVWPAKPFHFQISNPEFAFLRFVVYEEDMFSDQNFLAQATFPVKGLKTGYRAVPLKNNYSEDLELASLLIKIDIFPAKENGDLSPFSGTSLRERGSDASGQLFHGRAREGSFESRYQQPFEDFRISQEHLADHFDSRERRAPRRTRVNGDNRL
Sequence of E3 ubiquitin-protein ligase Mdm2 (Q00987 whole entry): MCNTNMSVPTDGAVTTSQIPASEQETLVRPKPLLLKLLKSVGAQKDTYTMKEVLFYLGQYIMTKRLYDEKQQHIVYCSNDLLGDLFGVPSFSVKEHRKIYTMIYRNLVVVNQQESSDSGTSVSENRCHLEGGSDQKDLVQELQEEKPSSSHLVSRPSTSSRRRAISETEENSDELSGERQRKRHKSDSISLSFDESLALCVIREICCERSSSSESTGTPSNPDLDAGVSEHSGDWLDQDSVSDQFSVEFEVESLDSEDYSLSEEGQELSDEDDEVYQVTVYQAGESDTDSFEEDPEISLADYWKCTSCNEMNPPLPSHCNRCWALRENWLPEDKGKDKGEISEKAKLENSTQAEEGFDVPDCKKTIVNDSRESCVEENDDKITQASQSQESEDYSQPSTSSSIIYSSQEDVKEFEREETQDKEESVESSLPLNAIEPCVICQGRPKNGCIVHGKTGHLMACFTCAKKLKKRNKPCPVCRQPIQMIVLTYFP
Sequence of SWI/SNF-related matrix-associated actin-dependent regulator of chromatin subfamily A member 2 (P51531 whole entry): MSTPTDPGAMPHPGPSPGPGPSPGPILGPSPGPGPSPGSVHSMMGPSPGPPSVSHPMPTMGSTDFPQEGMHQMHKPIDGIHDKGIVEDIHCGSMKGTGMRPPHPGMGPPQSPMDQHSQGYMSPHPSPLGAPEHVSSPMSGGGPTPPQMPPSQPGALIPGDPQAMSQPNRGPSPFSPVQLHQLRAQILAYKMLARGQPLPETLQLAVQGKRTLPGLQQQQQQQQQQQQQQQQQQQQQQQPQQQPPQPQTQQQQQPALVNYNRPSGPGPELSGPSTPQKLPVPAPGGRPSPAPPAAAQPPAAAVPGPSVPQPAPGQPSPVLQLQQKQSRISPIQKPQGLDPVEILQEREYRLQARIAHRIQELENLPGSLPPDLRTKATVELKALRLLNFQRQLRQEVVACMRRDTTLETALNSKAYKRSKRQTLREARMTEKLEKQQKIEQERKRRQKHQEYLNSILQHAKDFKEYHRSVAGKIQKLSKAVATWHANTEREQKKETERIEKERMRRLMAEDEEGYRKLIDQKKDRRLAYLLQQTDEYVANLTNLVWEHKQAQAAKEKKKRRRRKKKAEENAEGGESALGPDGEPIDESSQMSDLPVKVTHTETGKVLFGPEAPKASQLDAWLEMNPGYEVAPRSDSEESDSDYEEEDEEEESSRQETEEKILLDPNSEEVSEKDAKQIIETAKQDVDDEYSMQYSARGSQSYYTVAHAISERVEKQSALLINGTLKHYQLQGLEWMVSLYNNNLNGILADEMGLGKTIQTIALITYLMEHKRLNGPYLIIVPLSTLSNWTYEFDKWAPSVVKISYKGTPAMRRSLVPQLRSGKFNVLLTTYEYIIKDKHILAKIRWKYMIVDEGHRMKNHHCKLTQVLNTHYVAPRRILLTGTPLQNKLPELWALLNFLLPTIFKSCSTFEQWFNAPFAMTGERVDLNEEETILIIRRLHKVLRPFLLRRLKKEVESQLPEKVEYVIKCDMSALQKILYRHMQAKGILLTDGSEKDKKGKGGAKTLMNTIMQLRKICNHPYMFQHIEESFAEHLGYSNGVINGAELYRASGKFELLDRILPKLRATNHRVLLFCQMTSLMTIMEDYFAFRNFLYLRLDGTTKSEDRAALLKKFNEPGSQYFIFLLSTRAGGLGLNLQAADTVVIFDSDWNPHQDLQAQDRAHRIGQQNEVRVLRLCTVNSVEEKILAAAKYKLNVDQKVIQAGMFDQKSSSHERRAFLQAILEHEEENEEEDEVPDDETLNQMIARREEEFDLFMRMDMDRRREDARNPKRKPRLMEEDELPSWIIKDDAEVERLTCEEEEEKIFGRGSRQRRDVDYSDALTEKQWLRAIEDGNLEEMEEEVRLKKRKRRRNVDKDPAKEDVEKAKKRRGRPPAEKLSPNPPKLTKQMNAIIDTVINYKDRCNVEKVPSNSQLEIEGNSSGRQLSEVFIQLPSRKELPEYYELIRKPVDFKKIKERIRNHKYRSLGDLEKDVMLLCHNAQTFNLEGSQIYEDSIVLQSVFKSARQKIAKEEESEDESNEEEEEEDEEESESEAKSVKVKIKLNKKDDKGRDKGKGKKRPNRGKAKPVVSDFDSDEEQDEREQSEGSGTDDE

As to `O=C(/C(=C(\[S-])Nc1ccc(SC(F)F)cc1)[n+]1ccccc1)c1cc(Cl)ccc1Cl`, at Transthyretin, the EC50 was > 167 µM (inactive).

Broadly, the AC50 is the concentration at which the activity in the assay is half-maximal. As usually defined, the IC50 is the concentration needed to halve the response being measured. For the molecule `COC(=O)c1ccc(COc2ccc3c(c2)CCC3)o1`, the AC50 with A-375 [1] and with A-375 [3] was > 35 µM (active) throughout. For the same molecule, the half-maximal inhibitory concentration (IC50) in [2] was > 7 µM (active).

As a reminder, the CC50 is the concentration giving 50% cytotoxicity. `COc1c(OC(C)=O)ccc(/C=C/c2ccc3ccccc3n2)c1[N+](=O)[O-]`: the CC50 in experiment [4] was 33.2 µM (active).

As to `Clc1ccc(-c2nc3n(n2)Cc2ccccc2-3)cc1`, the EC50 (in experiment [5]; in experiment [6]; in the experiment “cells [8]”) was > 67.5 µM (inactive) throughout. For the same molecule, in experiment [7], the IC50 is > 67.5 µM (inactive).

Consider `Cc1cc(NC(=O)Cn2cnc3c(nnn3-c3cccc(F)c3)c2=O)no1`, for which, in experiment [9], the half-inhibitory concentration (IC50) was > 100 µM (active).

On to `Cc1cc(C(=O)CSc2nnc(Nc3ccccc3)s2)c(C)n1CC1CCCO1` (stereo unspecified), for which, in experiment [10], the EC50 was 20.4 µM (not active).

With `N#Cc1ccc(/C=C\c2[nH]ccc3c4ccccc4nc2-3)cc1`, the half-maximal activity concentration (AC50) was 40.7 µM (active) in experiment [11], > 52 µM (inactive) in the experiment “cells [12]” and 24.2 µM (active) in “cells [13]”. The EC50 in [14] and in experiment [15] was > 91.2 µM (inactive) each time.

For the molecule `CN(C(=O)c1ccccc1)C1c2c(ccc3ccccc23)OCC1CO` (stereo unspecified), the IC50 in experiment [16] and in [17] was > 122 µM (inactive) in each case.

As usually defined, the pEC50 is the EC50 on a negative log10 scale, so that one unit is a factor of ten. In the case of `CCS(=O)(=O)N1c2ccccc2CC[C@H]1C(=O)Nc1cccc(Cl)c1`, in [18], the negative-log EC50 (pEC50) was 5.76.

Take `CCCN1C[C@H](C)[C@@H](OC)CN(C)C(=O)c2cc(NC(=O)c3cccc(F)c3)ccc2OC[C@@H]1C`: the half-maximal activity concentration (AC50) (in [19]; in the experiment on HEK293) was 19.8 µM (active) in each case.

Source of the values: ChEMBL document CHEMBL1201862, “PubChem BioAssay data set” (2004).
